“Also recorded” adds a separate entry of the source. Like-named read-outs stand apart in the source and are kept apart here.
Columns and labels:
[1] = biological target: T1, FGFR-1 alkaline phosphatase fusion protein (FRAP) (Mus musculus, UniProt P16092); assay: Binding of soluble FGFR-1 alkaline phosphatase fusion protein (FRAP) to bFGF immobilized on heparin (Screen AP assay); settings: binding of FGF to FGFR; Methods section (ii); read-out: Screen AP assay (IC50)
T1 construct: soluble FGFR-1 ectodomain alkaline phosphatase fusion protein (FRAP); made in house; host or cells: NIH 3T3 cells (conditioned medium)
T1 sequence (P16092 22-376 limits assumed): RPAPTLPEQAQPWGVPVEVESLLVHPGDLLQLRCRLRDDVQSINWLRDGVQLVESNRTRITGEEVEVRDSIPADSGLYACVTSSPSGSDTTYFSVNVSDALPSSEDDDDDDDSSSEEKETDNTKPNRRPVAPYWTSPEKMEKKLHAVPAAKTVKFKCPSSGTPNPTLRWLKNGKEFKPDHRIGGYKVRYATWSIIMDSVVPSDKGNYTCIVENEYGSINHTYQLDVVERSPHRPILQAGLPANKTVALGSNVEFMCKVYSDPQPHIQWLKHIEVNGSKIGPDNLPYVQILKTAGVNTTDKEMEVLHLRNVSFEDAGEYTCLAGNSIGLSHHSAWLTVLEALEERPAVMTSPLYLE
Method: (ii) Binding of soluble FGFR-1 alkaline phosphatase fusion protein (FRAP) to immobilized bFGF. […] The end-point of the assay measured enzymatically the formation of FGF-receptor complexes quantitated by the specifically associated alkaline phosphatase (AP) catalyzed chromogenic product.
Subsequently, 200 μl of FRAP condition medium and porphyrin/corrole compound were added and incubated together for 2 h.
In order to identify inhibitors of FGF-FGFR interactions, an assay for testing FGFR-ligand binding was developed. The system is composed of bFGF bound to a heparin matrix to which soluble FGFR-1 ectodomain alkaline phosphatase fusion protein (FRAP) and the screened compounds are added (see Methods, section (ii)).

[2] = system: Lewis lung carcinoma (LLC) lung metastasis; assay: Lewis lung carcinoma lung metastasis model; format: in vivo, C57 black mice; parameters: Inhibitory activity in vivo, LLC tumor model (as % of total inhibition): reference not given here; settings: for Inhibitory activity in vivo, LLC tumor model (as % of total inhibition): 25 μg/gram, LLC murine tumor model, lung metastasis
Method: (vii) Lewis lung carcinoma tumor assay. Murine Lewis lung carcinoma (LLC) D122 cells (1×10^6 cells/[…] PBS) were injected into the foot pads of 10-week old C57 black mice (O'Reilly et al, 1994). Twenty five μg/g of body mass of porphyrin or corrole compound dissolved in PBS were injected IP twice a week to the treated group, and tumor size was measured periodically in order to follow primary tumor formation. In order to evaluate inhibition of lung metastasis by porphyrin or corrole compound, the primary tumors were allowed to develop over a period of six weeks to a volume of approximately 8 mm^3; after which the tumors were removed and metastases were allowed to develop for four weeks. During this time the treated group received 25 μg/g of body mass of porphyrin or corrole compound IP twice a week. Subsequently the mice were sacrificed, dissected and the lungs removed and photographed. The extent of lung metastasis was measured by weighing the lungs.
After establishing the capacity of P1 to inhibit primary tumor growth, the capacity of P1 to inhibit lung metastasis formation was measured as described in Methods, section (vi). Mice were injected with LLC cells (200,000 cells per mouse) into the foot pad and primary tumors were allowed to develop over a period of 3 to 4 weeks to a volume of approximately 8 mm^3. Subsequently, primary tumors were removed through amputation and lung metasases were allowed to develop for four weeks before the mice were sacrificed. The extent of lung metastasis at this point was examined by gross morphological examination and by determining the gain in lung weight. […] In order to quantitate the results from these experiments, the lungs from all mice were weighed and evaluated for the extent of metastatic growth.

FGFR-1 [3] = biological target: T2, FGFR-1 (Mus musculus, UniProt P16092); assay: Binding of 125I-bFGF to CHO cells expressing FGFR-1
T2 sequence (P16092 22-822): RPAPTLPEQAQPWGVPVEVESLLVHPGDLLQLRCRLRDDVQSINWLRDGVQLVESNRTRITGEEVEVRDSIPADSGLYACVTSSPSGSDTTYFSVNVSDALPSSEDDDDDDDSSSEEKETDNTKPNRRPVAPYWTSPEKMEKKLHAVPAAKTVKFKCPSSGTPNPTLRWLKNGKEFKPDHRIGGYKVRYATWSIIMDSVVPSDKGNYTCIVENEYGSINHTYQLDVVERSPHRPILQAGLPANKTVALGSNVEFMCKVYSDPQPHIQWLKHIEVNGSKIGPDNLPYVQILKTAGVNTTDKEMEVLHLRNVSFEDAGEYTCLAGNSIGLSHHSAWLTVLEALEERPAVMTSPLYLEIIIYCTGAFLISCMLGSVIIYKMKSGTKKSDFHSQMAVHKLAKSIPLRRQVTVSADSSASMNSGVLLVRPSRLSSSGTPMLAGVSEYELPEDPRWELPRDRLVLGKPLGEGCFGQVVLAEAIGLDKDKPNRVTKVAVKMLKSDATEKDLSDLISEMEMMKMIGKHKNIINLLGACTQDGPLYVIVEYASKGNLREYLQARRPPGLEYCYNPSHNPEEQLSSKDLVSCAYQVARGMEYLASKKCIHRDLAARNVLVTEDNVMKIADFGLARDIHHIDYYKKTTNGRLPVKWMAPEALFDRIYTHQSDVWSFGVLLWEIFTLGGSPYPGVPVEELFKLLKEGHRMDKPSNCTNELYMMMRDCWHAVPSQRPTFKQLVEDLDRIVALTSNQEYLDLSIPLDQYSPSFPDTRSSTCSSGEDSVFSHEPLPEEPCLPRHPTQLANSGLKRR
From the text: First we utilized a cell-free system, measuring the binding of radiolabeled bFGF to a dimeric soluble FGFR-1 fused to alkaline phosphatase. The soluble FRAP was immobilized using an anti-alkaline phosphatase antibody prebound to agarose-protein A beads (see Methods, section (iii)). As a: second experimental model, we used CHO cells deficient in heparan sulfate and genetically engineered to express FGFR-1 (Methods, section (iv)).

soluble FGFR-1 (FRAP) = biological target: T3, soluble FGFR-1 (FRAP) (Mus musculus, UniProt P16092); assay: Binding of 125I-bFGF to immobilized soluble FGFR-1 (FRAP), cell-free
T3 sequence (P16092 22-376 limits assumed): T1 sequence (P16092 22-376 limits assumed)
From the text: First we utilized a cell-free system, measuring the binding of radiolabeled bFGF to a dimeric soluble FGFR-1 fused to alkaline phosphatase. […] As a: second experimental model, we used CHO cells deficient in heparan sulfate and genetically engineered to express FGFR-1 (Methods, section (iv)).

FGFR-3 = biological target: T4, FGFR-3 (Homo sapiens, UniProt P22607); assay: Binding of 125I-FGF9 to immobilized soluble FGFR-3 (FR-3-AP); settings: FIG. 11
T4 construct: soluble FGFR-3 ectodomain alkaline phosphatase fusion protein (FR-3-AP); made in house; host or cells: NIH 3T3 cells (conditioned medium)
T4 sequence (P22607 23-375 limits assumed): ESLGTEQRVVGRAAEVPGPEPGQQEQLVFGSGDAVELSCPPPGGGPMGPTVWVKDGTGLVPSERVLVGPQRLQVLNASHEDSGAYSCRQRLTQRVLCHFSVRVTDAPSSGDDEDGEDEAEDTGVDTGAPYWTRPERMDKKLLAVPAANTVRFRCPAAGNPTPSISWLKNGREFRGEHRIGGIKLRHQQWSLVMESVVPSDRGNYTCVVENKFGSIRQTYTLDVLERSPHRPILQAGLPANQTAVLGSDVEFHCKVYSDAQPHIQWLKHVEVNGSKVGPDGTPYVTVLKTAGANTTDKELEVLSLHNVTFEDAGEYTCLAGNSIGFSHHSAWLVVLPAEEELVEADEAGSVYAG
Method: Incubations were performed in the presence of 100 ng/ml heparin and increasing concentrations of porphyrins. […] Results represent the mean value in one of at least two independent experiments.
(iii) Binding of ^125I-bFGF or ^125I-FGF9 to s luble FGFR-1 or FGFR-3. Conditioned medium from NIH 3T3 cells secreting soluble FRAP or FGFR-3 FR-3-AP, was incubated for 45 min at room temperature with rabbit anti-human placental AP antibodies (generated as described in Ornitz et al, 1991) prebound to agarose-protein A beads Pierce). The FGFR-1 or FGFR-3-coupled beads were washed three times with 1 ml HNTG and incubated with 2 ng/ml of ^125I-FGF, 1 μg/ml of heparin and porphyrin/corrole compound at different concentrations for 1 h at room temperature. High affinity-bound ^125I-bFGF was determined by counting of the samples in a γ-counter.
Thus, the compounds were tested for their capacity to inhibit binding of a soluble FGFR-3 ectodomain alkaline phosphatase fusion protein (FR-3-AP) to FGF-9, utilizing a cell free system, similar to the one described for FGFR-1 in Example 1 above, and measuring the binding of radiolabeled ^125I-FGF-9 to soluble FGFR-3.

FGF receptor = FGF receptor (Mus musculus, UniProt P16092); assay: In vitro inhibition of bFGF binding (assay format not stated)
Chain of FGF receptor (P16092 22-822): as the sequence (P16092 22-822) above

FGFR-1 [4] = biological target: T2, FGFR-1; assay: Covalent cross-linking of 125I-bFGF to CHO cells transfected with FGFR-1; format: binding; parameters: expressed in transfected cells; host or cells: CHO cells deficient in heparan sulfate; settings: FIG. 2
Method: Binding of ^125I-bFGF to confluent monolayers of PGFR-1 expressing CHO cells or ^125I-FGF9 to FGFR-3 expressing CHO cells, was performed as described in Methods, section (iv), in the presence or absence of P1 (Inhibitor). After 90 min, disuccinylimidyl suberate [DSS]
(iv) Binding of ^125I-bFGF and ^125I-FGF9 to cells. Confluent cultures of CHO cells expressing FGFR-1(Yayon et al, 1991) or FGFR-3 (Hecht et al, 1995) in 24-well plates (Falcon) were precooled and washed twice with cold DMEM supplemented with 20 mM Hepes (pH 7.5) and 0.1% bovine serum albumin (DMEM/BSA). They were then incubated for 1.5 h at 4° C. with ^125I-bFGF (2 ng/ml) and increasing concentrations of porphyrin/corrole compound. The binding medium was discarded and the cells were washed once with ice-cold DMEM/BSA and twice with cold PBS (pH 7.5) containing 1.6M NaCl. […] Non-specific binding was determined in the presence of a 100-fold excess of unlabeled bFGF.
In order to unequivocally determine the specificity of the binding inhibition, chemical cross-linking of ^125I-bFGF and ^125I-FGF9 to CHO cells transfected with FGFR-1 and FGFR-3, respectively, was carried out as described in Methods, section (iv), in the absence or presence of increasing concentrations of P1.

[5] = read-out: Cellular receptor binding (IC50), binding of FGF to FGFR, Methods section (iv)
[6] = read-out: Soluble receptor binding (IC50), binding of FGF to FGFR, Methods section (iii)

| Structure (SMILES) | IC50 [1] | Inhibitory activity in vivo, LLC tumor model (as % of total inhibition) [2] | IC50 (FGFR-1 [3]; [5]) | IC50 (soluble FGFR-1 (FRAP); [6]) | other results |
| --- | --- | --- | --- | --- | --- |
| C[N+](C)(C)c1ccc(-c2c3nc(c(-c4ccc([N+](C)(C)C)cc4)c4ccc([nH]4)c(-c4ccc([N+](C)(C)C)cc4)c4nc(c(-c5ccc([N+](C)(C)C)cc5)c5ccc2[nH]5)C=C4)C=C3)cc1 [Compound P5, 5,10,15,20-Tetrakis[4-(trimethylammonio)phenyl]-21H,23H-porphine tetra-p-tosylate] | 100 nM | 75% | – | – | IC50 (FGFR-1 [3]): 1800 nM; IC50 (soluble FGFR-1 (FRAP)): 900 nM |
| C[n+]1ccc(-c2c3nc(c(-c4cc[n+](C)cc4)c4ccc([nH]4)c(-c4cc[n+](C)cc4)c4nc(c(-c5cc[n+](C)cc5)c5ccc2[nH]5)C=C4)C=C3)cc1 [Compound P8, 5,10,15,20-Tetrakis-(N-methyl-4-pyridylium)-21H,23H-porphine tetraiodide] | 95 nM | 90% | – | – | IC50 (FGFR-1 [3]; Cellular receptor binding (IC50), binding of FGF to FGFR, Methods section (iv)): 1300 nM; IC50 (soluble FGFR-1 (FRAP); Soluble receptor binding (IC50), binding of FGF to FGFR, Methods section (iii)): 950 nM |
| C[n+]1ccc(C2=Cc3cc4[nH]c(cc5nc(cc6[nH]c(cc2n3)cc6-c2cc[n+](C)cc2)C=C5c2cc[n+](C)cc2)cc4-c2cc[n+](C)cc2)cc1 [Compound P10, 3,8,13,18-Tetrakis(N-methyl-4-pyridylium)-21H,23H-porphine tetraiodide] | 80 nM | – | 1900 nM | 850 nM | – |
| C[N+](C)(C)c1c(F)c(F)c(-c2c3nc(c(-c4c(F)c(F)c([N+](C)(C)C)c(F)c4F)c4ccc([nH]4)c(-c4c(F)c(F)c([N+](C)(C)C)c(F)c4F)c4nc(c(-c5c(F)c(F)c([N+](C)(C)C)c(F)c5F)c5ccc2[nH]5)C=C4)C=C3)c(F)c1F.O=S(=O)([O-])C(F)(F)F.O=S(=O)([O-])C(F)(F)F.O=S(=O)([O-])C(F)(F)F.O=S(=O)([O-])C(F)(F)F [Compound P15, 5,10,15,20-Tetrakis(2,3,5,6-tetrafluoro-4-trimethyl-ammonio-phenyl)-21H,23H-methyl-porphine tetra-trifluoromethylsulfonate] | – | – | 120 nM | 80 nM | Relative potency in FGF-9/FGFR-3 soluble receptor assay, in words (FGFR-3): more potent |
| C[n+]1ccccc1-c1c(F)c(F)c(-c2c3nc(c(-c4c(F)c(F)c(-c5cccc[n+]5C)c(F)c4F)c4ccc([nH]4)c(-c4c(F)c(F)c(-c5cccc[n+]5C)c(F)c4F)c4nc(c(-c5c(F)c(F)c(-c6cccc[n+]6C)c(F)c5F)c5ccc2[nH]5)C=C4)C=C3)c(F)c1F [Compound P20, 5,10,15,20-Tetrakis[4-(N-methyl-2-pyridylium) 2,3,5,6-tetrafluoro-phenyl]-21H,23H-porphine tetraiodide] | – | 150% | – | – | Inhibition of lung metastasis in LLC model, in words ([2]; 25 μg/g of body mass IP): highly active in vivo; also recorded: more active than P1; Activity in vitro in words (inhibition of bFGF binding) (FGF receptor): significantly more active than P1; Inhibition of bFGF binding to immobilized FRAP, in words (soluble FGFR-1 (FRAP); FIG. 8B): inhibit bFGF binding in vitro |
| Cc1ccc(C(=O)Nc2ccc(S(=O)(=O)O)c3cc(S(=O)(=O)O)cc(S(=O)(=O)O)c23)cc1NC(=O)c1cccc(NC(=O)Nc2cccc(C(=O)Nc3cc(C(=O)Nc4ccc(S(=O)(=O)O)c5cc(S(=O)(=O)O)cc(S(=O)(=O)O)c45)ccc3C)c2)c1 [Suramin, reference compound] | – | – | – | – | Inhibition of bFGF-receptor complex formation (cross-linking), in words (FGFR-1 [4]): demonstrated FGF receptor binding inhibition |

Reference: US6730666B1, “Pharmaceutical compositions comprising porphyrins and some novel porphyrin derivatives” (Yeda Research and Development Co. Ltd., priority 1998, dated 2004)
